Experimental data from patent publication US8158621B2, “Methods of treating or preventing autoimmune diseases with 2,4-pyrimidinediamine compounds” (Rigel Pharmaceuticals, Inc., priority 2002, dated 2012).
Where two headings read alike, the source gives them in different places.

Tested on: Human Jurkat T-cells (clone N)
Test: Jurkat T-cell activation (anti-TCR, CD69 upregulation)
Format: cell-based
Summary of the method: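 Jurkat cells in RPMI + 5% FBS preincubated with compound 1 h at 37 °C, then stimulated with anti-TCR C305 at 500 ng/ml for 20 h. CD69 surface expression stained with anti-CD69-APC and read by flow cytometry; IC50 versus solvent-only control.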

Structure (SMILES)	IC50 (Homo sapiens, Jurkat) [µM]	IC50 [µM]
CNC(=O)c1cc2cc(Nc3ncc(F)c(Nc4cccc(C(C)(C)C)c4)n3)ccc2o1 [Compound R940291]	9.45	–
OCCOc1cccc(Nc2ncc(F)c(Nc3ccc(CO)c(CO)c3)n2)c1 [Compound R940292]	–	2.78
O=C(COc1cccc(Nc2ncc(F)c(Nc3ccc4c(c3)C(=O)OC4)n2)c1)NCC(O)CO (stereo not shown) [Compound R940293]	–	> 10
COC(=O)c1cc2cc(Nc3ncc(F)c(Nc4ccc5c(c4)C(=O)OC5)n3)ccc2o1 [Compound R940294]	–	> 10
CC(C)(C)c1cccc(Nc2nc(Nc3cccc(OCC(=O)NC(CO)CO)c3)ncc2F)c1 [Compound R940296]	–	1.23
CC(C)c1cccc(Nc2ncc(F)c(Nc3cccc(C(C)C)c3)n2)c1 [Compound R940297]	> 10	–
CNC(=O)COc1cccc(Nc2ncc(F)c(Nc3cccc(C(N)=O)c3)n2)c1 [Compound R940299]	–	24.9
CNC(=O)COc1cccc(Nc2ncc(F)c(Nc3ccc(OC)c(C(=O)OC)c3)n2)c1 [Compound R940300]	–	9.28
COC(=O)c1cc(Nc2ncc(F)c(Nc3cccc(O)c3)n2)ccc1OC [Compound R940301]	1.31	–
CNC(=O)c1cc(Nc2nc(NC)ncc2F)ccc1OC [Compound R940304]	> 10	–
CNC(=O)COc1cccc(Nc2ncc(F)c(Nc3ccc(OC)c(C(=O)NC)c3)n2)c1 [Compound R940306]	–	11
CC(C)c1cccc(Nc2nc(Nc3cccc(OCC(=O)NC[C@@H](O)CO)c3)ncc2F)c1 [Compound R940307]	–	2.06
CNC(=O)COc1cccc(Nc2ncc(F)c(Nc3cccc(CN)c3)n2)c1 [Compound R940309]	–	> 10
CNC(=O)COc1cccc(Nc2ncc(F)c(Nc3ccc(OC)c(C(=O)NC(C)C)c3)n2)c1 [Compound R940312]	–	16.2
CNC(=O)COc1cccc(Nc2ncc(F)c(Nc3ccc(OC)c(CN4CCOCC4)c3)n2)c1 [Compound R940314]	–	7.03
COc1ccc(Nc2nc(Nc3cc(C)c(O)c(Cl)c3)ncc2F)cc1CN1CCOCC1 [Compound R940316]	–	4.28
CNCc1cccc(Nc2nc(Nc3cccc(OCC(=O)NC)c3)ncc2F)c1 [Compound R940317]	–	3.28
COc1ccc(Nc2nc(Nc3cc(C)c(O)c(Cl)c3)ncc2F)cc1CN1CCNCC1 [Compound R940318]	–	1.39
CNC(=O)COc1cccc(Nc2ncc(F)c(Nc3ccc(OC)c(CN(C)C)c3)n2)c1 [Compound R940321]	–	3.68
CC1(C)Oc2ccc(Nc3nc(Cl)ncc3F)cc2NC1=O [Compound R940322]	–	4.57
CC1(C)CN(c2ccccn2)c2cc(Nc3nc(Cl)ncc3F)ccc2O1 [Compound R940336]	–	> 10
CNC(=O)COc1cccc(Nc2ncc(F)c(Nc3ccc4c(c3)N(c3ccccn3)CC(C)(C)O4)n2)c1 [Compound R940337]	–	1.82
Cn1ncc2cc(Nc3ncc(F)c(Nc4ccc5c(c4)NC(=O)C(C)(C)O5)n3)ccc21 [Compound R940338]	–	0.708
O=C1Nc2cc(Nc3nc(Cl)ncc3F)ccc2OC1(F)F [Compound R940342]	–	5.12
CC1(C)Oc2cc(Nc3nc(Cl)ncc3F)cnc2NC1=O [Compound R940344]	–	7.74
CNC(=O)COc1cccc(Nc2ncc(F)c(Nc3cnc4c(c3)OC(C)(C)C(=O)N4)n2)c1 [Compound R940345]	–	5.4
CC1(C)Oc2ccc(Nc3nc(Nc4cccc(O)c4)ncc3F)cc2NC1=O [Compound R940346]	–	2.09

Structure (SMILES)	IC50 (Homo sapiens, Jurkat) [µM]	IC50 [µM]
NC(=O)COc1ccc(Nc2ncc(F)c(Nc3ccc(OCC(N)=O)cc3)n2)cc1 [Compound R945025]	–	7.03
N#CCOc1ccc(Nc2ncc(F)c(Nc3ccc(OCC#N)cc3)n2)cc1 [Compound R945032]	–	15.2
Fc1cnc(Nc2ccc(OCc3nn[nH]n3)cc2)nc1Nc1ccc(OCc2nn[nH]n2)cc1 [Compound R945033]	–	> 10
COC(=O)c1ccc(Nc2ncc(F)c(Nc3ccc(C(=O)OC)cc3)n2)cc1 [Compound R945034]	> 10	–
COC(=O)c1cccc(Nc2ncc(F)c(Nc3cccc(C(=O)OC)c3)n2)c1 [Compound R945035]	> 10	–
O=C(O)c1cccc(Nc2ncc(F)c(Nc3cccc(C(=O)O)c3)n2)c1 [Compound R945036]	> 10	–
O=C(O)c1ccc(Nc2ncc(F)c(Nc3ccc(C(=O)O)cc3)n2)cc1 [Compound R945037]	> 10	–
Cc1c(O)cccc1Nc1ncc(F)c(Nc2cccc(O)c2C)n1 [Compound R945038]	> 10	–
CCNC(=O)Nc1ccc(Nc2ncc(F)c(Nc3ccc(NC(=O)NCC)cc3)n2)cc1 [Compound R945040]	> 10	–
O=C(O)c1cc(Nc2ncc(F)c(Nc3ccc(O)c(C(=O)O)c3)n2)ccc1O [Compound R945041]	> 10	–
COC(=O)c1cc(Nc2ncc(F)c(Nc3ccc(O)c(C(=O)OC)c3)n2)ccc1O [Compound R945043]	> 10	–
CCNC(=O)Nc1cccc(Nc2ncc(F)c(Nc3cccc(NC(=O)NCC)c3)n2)c1 [Compound R945045]	7.6	–
Cn1nnc(COc2ccc(Nc3ncc(F)c(Nc4ccc(OCc5nnn(C)n5)cc4)n3)cc2)n1 [Compound R945046]	–	4.08
Cn1nnc(COc2ccc(Nc3nc(Nc4ccc(OCc5nnnn5C)cc4)ncc3F)cc2)n1 [Compound R945047]	–	3.21
Cn1nnnc1COc1ccc(Nc2ncc(F)c(Nc3ccc(OCc4nnnn4C)cc3)n2)cc1 [Compound R945048]	–	2.23
N#Cc1cccc(Nc2ncc(F)c(Nc3cccc(C#N)c3)n2)c1 [Compound R945051]	> 10	–
COC(=O)COc1ccc(Nc2ncc(F)c(Nc3ccc(OCC(N)=O)cc3)n2)cc1 [Compound R945052]	–	> 10
COC(=O)COc1ccc(Nc2ncc(F)c(Nc3ccc(OCC#N)cc3)n2)cc1 [Compound R945053]	–	2.67
COC(=O)c1ccc(Nc2ncc(F)c(Nc3ccc(C(=O)OC)c(O)c3)n2)cc1O [Compound R945056]	> 10	–
N#Cc1ccc(Nc2ncc(F)c(Nc3ccc(C#N)cc3)n2)cc1 [Compound R945057]	> 10	–
COC(=O)COc1ccc(Nc2nc(Nc3ccc(OCC(N)=O)cc3)ncc2F)cc1 [Compound R945060]	–	6.08
O=C(O)c1ccc(Nc2ncc(F)c(Nc3ccc(C(=O)O)c(O)c3)n2)cc1O [Compound R945061]	> 10	–
COC(=O)COc1ccc(Nc2nc(Nc3ccc(OCC#N)cc3)ncc2F)cc1 [Compound R945062]	–	> 10
NC(=O)COc1ccc(Nc2nc(Nc3cccc(O)c3)ncc2F)cc1 [Compound R945063]	–	6.04
NC(=O)COc1ccc(Nc2ncc(F)c(Nc3cccc(O)c3)n2)cc1 [Compound R945064]	–	4.68
COC(=O)c1ccc(Nc2ncc(F)c(Nc3ccc(C(=O)OC)c(OC)c3)n2)cc1OC [Compound R945065]	14.4	–
COC(=O)c1cc(Nc2ncc(F)c(Nc3ccc(OC)c(C(=O)OC)c3)n2)ccc1OC [Compound R945066]	43.2	–

Structure (SMILES)	IC50 (Homo sapiens, Jurkat) [µM]	IC50 [µM]
COc1ccc(Nc2ncc(F)c(Nc3ccc(OC)c(C(=O)O)c3)n2)cc1C(=O)O [Compound R945067]	> 10	–
COc1cc(Nc2ncc(F)c(Nc3ccc(C(=O)O)c(OC)c3)n2)ccc1C(=O)O [Compound R945068]	> 10	–
N#CCOc1ccc(Nc2ncc(F)c(Nc3cccc(O)c3)n2)cc1 [Compound R945070]	–	> 10
N#CCOc1ccc(Nc2nc(Nc3cccc(O)c3)ncc2F)cc1 [Compound R945071]	–	0.631
CON=C(N)COc1ccc(Nc2ncc(F)c(Nc3ccc(OCC(N)=NOC)cc3)n2)cc1 [Compound R945096]	–	2.8
N#CCOc1ccc(Nc2nc(Nc3ccc(OCC(=O)O)cc3)ncc2F)cc1 [Compound R945097]	–	> 10
N#Cc1cccc(Nc2nc(Nc3cccc(O)c3)ncc2F)c1 [Compound R945109]	9.64	–
COC(=O)COc1ccc(Nc2ncc(F)c(Nc3cccc(C#N)c3)n2)cc1 [Compound R945110]	–	> 10
Oc1cccc(Nc2nc(NCCc3c[nH]c4ccccc34)ncc2F)c1 [Compound R945117]	> 10	–
COC(=O)COc1cccc(Nc2ncc(F)c(Nc3cccc(O)c3)n2)c1 [Compound R945118]	–	9.49
COC(=O)COc1cccc(Nc2ncc(F)c(Nc3ccc4c(c3)OCCO4)n2)c1 [Compound R945124]	–	6.16
COC(=O)COc1cccc(Nc2ncc(F)c(Nc3ccc(OC(C)C)cc3)n2)c1 [Compound R945125]	–	> 10
O=C(O)COc1cccc(Nc2ncc(F)c(Nc3cccc(O)c3)n2)c1 [Compound R945126]	–	> 10
Cc1nc(COc2cccc(Nc3ncc(F)c(Nc4cccc(O)c4)n3)c2)no1 [Compound R945127]	–	11.1
Cc1nc(COc2cccc(Nc3ncc(F)c(Nc4ccc5c(c4)OCCO5)n3)c2)no1 [Compound R945128]	–	4.31
Cc1nc(COc2cccc(Nc3ncc(F)c(Nc4ccc(OC(C)C)cc4)n3)c2)no1 [Compound R945129]	–	6.08
Cc1noc(COc2cccc(Nc3nc(Nc4cccc(O)c4)ncc3F)c2)n1 [Compound R945130]	–	> 10
COC(=O)c1cc2cc(Nc3nc(Nc4cccc(OCc5noc(C)n5)c4)ncc3F)ccc2o1 [Compound R945131]	–	19.2
Cc1nc(COc2cccc(Nc3nc(Nc4cccc(O)c4)ncc3F)c2)no1 [Compound R945132]	–	20.2
Cc1nc(COc2cccc(Nc3nc(Nc4ccc(OCC(N)=O)cc4)ncc3F)c2)no1 [Compound R945133]	–	9.14
Cc1nc(COc2cccc(Nc3ncc(F)c(Nc4ccc5oc(C(N)=O)cc5c4)n3)c2)no1 [Compound R945135]	–	4.37
Cc1nc(COc2cccc(Nc3nc(Nc4ccc5c(c4)OCCO5)ncc3F)c2)no1 [Compound R945137]	–	5.43
Cc1nc(COc2cccc(Nc3nc(Nc4ccc(OC(C)C)cc4)ncc3F)c2)no1 [Compound R945138]	–	> 10
COC(=O)COc1cccc(Nc2ncc(F)c(Nc3cc(C)c(O)c(C)c3)n2)c1 [Compound R945139]	–	13.9
Cc1cc(Nc2nc(Nc3cccc(OCC(=O)N4CCNCC4)c3)ncc2F)cc(C)c1O [Compound R945140]	–	2.09
